Publication PMC5304334, “Antifouling potential of Nature-inspired sulfated compounds” (Scientific Reports, 2017)
pEC50: −log10 of the molar value. Entries after “also recorded” stand apart in the source; their conditions may differ. Where two headings read alike, the source gives them in different places.

Assays:
Vibrio harveyi CECT 525 = assay: Antibacterial growth inhibition, Vibrio harveyi; type: cell-based; conditions: V. harveyi
Procedure: (§1) Antibacterial activities were evaluated against four strains of marine biofilm-forming bacteria Cobetia marina CECT 4278, Vibrio harveyi CECT 525, Halomonas aquamarina CECT 5000, and Pseudoalteromonas atlantica CECT 570, all from Spanish Type Culture Collection (CECT). The bacteria were inoculated and incubated for 24 h at 26 °C in marine broth (Difco) at an initial density of 0.1 (OD600) in 96 well flat-bottom microtiter plates. Sulfated compounds stock solutions were prepared in ultra-pure water. […] Bacterial growth inhibition in the presence of the test compounds was measured in quadriplicate by reading of optical density at 600 nm using a microplate reader (Biotek Synergy HT, Vermont, USA). Marine broth with ultra-pure water and penicilin-streptomycin-neomycin stabilized solution were used as negative (B) and positive (C) controls, respectively.
(§2) For the determination of maximal inhibitory concentrations (IC) a serial dilution of the stock solution was used to obtain final concentrations from 100 μM to 0.75 μM, the same range applied in antifouling bioassays plus one lower concentration, and the same procedure was applied.
Data from the anti-settlement and antibacterial screenings were analyzed using a one-way analysis of variance (ANOVA) followed by a Dunnett test against the control (p < 0.05). […]

[1] = tested on: Halomonas aquamarina CECT 5000; assay: Antibacterial growth inhibition, Halomonas aquamarina; type: cell-based; conditions: H. aquamarina
Procedure: as §1, §2
(§3) Data from the anti-settlement and antibacterial screenings were analyzed using a one-way analysis of variance (ANOVA) followed by a Dunnett test against the control (p < 0.05). Semi-maximum response concentration that inhibited 50% larval settlement (EC50), semi-maximum response concentration that inhibited 20% bacterial growth (EC20) and the median lethal dose (LC50) for each bioactive compound were assessed using Probit regression analysis. Pearson Goodness-of-fit (Chi-Square) significance was considered at p < 0.05 for all analyses, and 95% lower and upper confidence limits [95% LCL; UCL] were presented. Therapeutic ratio (LC50/EC50) was used to evaluate the effectiveness vs toxicity of compounds[31][53][54]. The software IBM SPSS Statistics 21 was used for statistical analysis.

[2] = tested on: Mytilus galloprovincialis plantigrades; assay: Anti-settlement bioassay with mussel plantigrades (effectiveness and mortality); type: in vivo; conditions: for Anti-settlement activity in screening (result in words): 250 and 50 μM, p < 0.05 Dunnett
Procedure: (§4) M. galloprovincialis juvenile (0.5 cm shell length approximately) aggregates were collected from mussel beds from the intertidal rocky shore, during low neap tides at Memória beach, Matosinhos, Portugal (41°13′59″N; 8°43′28″W), and immediately transported to the laboratory. M. galloprovincialis plantigrade post-larvae (0.5–2 mm) were screened among the small mussel aggregates in a binocular magnifier (Olympus SZX2-ILLT), gently washed with filtered seawater to remove organic debris and sand particles and isolated in a petri dish with filtered seawater immediately before the bioassays.
(§5) For the screening bioassay, competent M. galloprovincialis plantigrades (showing exploring behavior, ie, moving their foot searching for the appropriate substrate to settle) were selected and exposed to the series of sulfated compounds 1–13 at two concentrations (250 and 50 μM) in 24-well microplates for 15 h, at 18 ± 1 °C, in the darkness. Bioassays time frame was selected based on preliminary bioassays to ensure that the response measured is reflecting the compounds effect. Test solutions were prepared in filtered seawater (previously treated by UV light, and carbon filters and mechanically filtered with […] filter before use) and obtained by dilution of the compounds stock solutions (50 mM) in ultra-pure water. Four well replicates were used per condition with five plantigrades per well and 2.5 mL of test solution. A negative control, with ultra-pure water was included in all bioassays, as well as a positive control with 5 μM CuSO4 (a potent AF agent). At the end of the exposure period, the anti-settlement activity was determined by the presence/absence of byssal threads produced by each individual efficiently attached for all the conditions tested.
as §3

[3] = Seawater stability under AF assay conditions (HPLC-DAD); type: physicochemical; conditions: 250 μM in filtered seawater, 15 h, 18 °C
Procedure: High performance liquid chromatography with Diode-Array Detection (HPLC-DAD) analyses were carried out on a System SMI Pump Series II (Gloucester, UK) equipped with a Rheodyne 7125 injector fitted with a 20 μL loop, a TSP-UV6000LP detector, and a Chromquest for Windows NT integrator and using a C-18 Nucleosil column (5 μm, 250 × 4.6 mm I.D.), from Macherey-Nagel (Düren, Germany); acetonitrile was of HPLC grade from Merck. HPLC ultrapure water was generated by a Milli-Q system (Millipore, Bedford, MA, USA). The mobile phase used was water with tetrabutylammonium bromide (TBAB, 25 mM) and acetonitrile (38:62) at a constant flow rate of 1.0 mL.min^−1. The mobile phase was filtered ([…]) and degassed for 15 min in an ultrasonic bath before use.
The seawater stability of the three most promising compounds 2, 6, and 12 in the time period (15 h) and temperature (18 °C) of the AF assay was evaluated by HPLC-DAD. Compounds were analyzed at 250 μM (final concentration) in filtered seawater ([…]). Incubations were performed in glass HPLC vials and three independent samples plus respective blank (filtered seawater) and controls (time zero - freshly prepared solutions of compounds) were analyzed.

[4] = Water solubility (statement in discussion); type: physicochemical
[5] = tested on: Agaricus bisporus tyrosinase; assay: In vitro tyrosinase inhibition assay; type: biochemical; conditions: 50 μM compound
Procedure: Tyrosinase inhibition assays were conducted using Agaricus bisporus tyrosinase (EC 1.14.18.1) according to Adhikari et al.[50] with slight modifications. The enzymatic reaction follows the catalytic conversion of L-Dopa to dopaquinone and the formation of dopachrome by measuring the absorvance at 475 nm. Briefly, tyrosinase (25 U/mL) is added to 50 mM fosfate buffer pH 6.5 and the sulfated compound at 50 μM. The enzymatic activity was triggered by the addition of L-dopa (25 mM). Kojic acid was included as positive control and ultra-pure water as negative control.

[6] = biological target: T1, Electrophorus electric acetylcholinesterase Type V-S (Electrophorus electricus, UniProt O42275); assay: In vitro acetylcholinesterase activity (Ellman); type: biochemical; conditions: 50 μM compound
T1 construct: purchased SIGMA C2888
Procedure: The potential of compounds 2, 6 and 12 to inhibit acetylcholinesterases activity was evaluated using Electrophorus electric acetylcholinesterase Type V-S (SIGMA C2888, E.C. 3.1.1.7), according to Ellman et al.[47] with some modifications. Briefly, reaction solution containing phosphate buffer 1 M pH 7.2, dithiobisnitrobenzoate (DTNB) 10 mM (acid dithiobisnitrobenzoate and sodium hydrogen carbonate in phosphate buffer) and […] 0.075 M was added to pure acetylcholinesterase enzyme (0.25 U/mL) and each test sulfated compound (final concentration of 50 μM) in quadruplicate. The optical density was measured at 412 nm in a microplate reader during 5 min at 25 °C. A negative control (B) with ultra-pure water and a positive control (C+) with 20 mM eserine also included.

[7] = tested on: Vibrio fischeri (NRRL-B-11177); assay: Luminescent Vibrio fischeri ecotoxicity assay (ISO11348); type: cell-based; conditions: for EC50: Aliivibrio fischeri, V. fischeri luminescence
Procedure: (§6) After 5, 15 and 30 min of exposure, the light emitted as a by-product of Vibrio fischeri cellular respiration was measured at 490 nm. Any inhibition of cellular activity results in a decreased rate of respiration and a corresponding decrease in the rate of luminescence. The decrease of bacterial luminescence measured after 5, 15 or 30 min of exposition was used as test endpoint. Luminescence was measured using a LUMIStox photometer from DR LANGE, after a contact time of 15 min and 30 min at 15 ± 1 °C, taking into account a correction factor, fk, which is a measure of intensity change of control samples during the exposure time.
(§7) The pH of all samples was within the interval 6.0–8.5.

[8] = as above; type: cell-based; conditions: Vibrio fischeri; read-out: LC50 Vibrio fischeri
Procedure: as §6, §7

[9] = Anti-settlement bioassay with mussel plantigrades (effectiveness and mortality); type: in vivo, Mytilus galloprovincialis; conditions: Mytilus galloprovincialis, in vivo, other: immersion in test solution in filtered seawater; mortality of plantigrades, 15 h, up to 500 μM; read-out: LC50, the median lethal dose
Procedure: as §4, §5, §3

Artemia salina nauplii = Artemia salina nauplii lethality (ecotoxicity) test; type: in vivo
Procedure: Selected sulfated compounds with AF potential 2, 6, and 12 were tested for general toxicity to nontarget species using the brine shrimp (Artemia salina) nauplii lethality test[51]. Briefly, A. salina eggs were allowed to hatch in nutrient–enriched seawater as nauplii for approximately 48 h at 25 °C. Toxicity tests were performed in the darkness in 96-wells microplates with eight replicates per condition and 15–20 nauplii per well. Serial diluted test solutions of the most promising sulfated AF compounds (25, 50, and 250 μM) were prepared in filtered seawater. K2Cr2O7 (13.6 μM) was included as positive control and ultra-pure water as negative control. Percentage of mortality was determined at 48 h of exposure.

T1 sequence (O42275 24-633): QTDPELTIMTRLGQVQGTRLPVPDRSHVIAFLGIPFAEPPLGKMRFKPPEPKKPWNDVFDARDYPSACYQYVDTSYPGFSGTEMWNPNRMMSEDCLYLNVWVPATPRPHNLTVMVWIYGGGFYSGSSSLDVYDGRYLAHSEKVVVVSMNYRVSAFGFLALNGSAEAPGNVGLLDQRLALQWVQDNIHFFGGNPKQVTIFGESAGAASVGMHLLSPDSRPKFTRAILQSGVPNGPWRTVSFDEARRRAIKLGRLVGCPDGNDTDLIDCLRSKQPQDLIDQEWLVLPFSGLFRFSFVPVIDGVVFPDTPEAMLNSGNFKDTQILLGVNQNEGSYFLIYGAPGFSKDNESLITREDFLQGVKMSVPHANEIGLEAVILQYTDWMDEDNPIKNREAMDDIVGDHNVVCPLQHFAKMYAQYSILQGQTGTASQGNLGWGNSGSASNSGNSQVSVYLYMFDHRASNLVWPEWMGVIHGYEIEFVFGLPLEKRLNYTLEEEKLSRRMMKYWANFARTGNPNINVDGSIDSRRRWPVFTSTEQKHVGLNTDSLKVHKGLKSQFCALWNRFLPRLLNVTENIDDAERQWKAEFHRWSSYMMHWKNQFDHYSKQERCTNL

O=c1c(O[C@@H]2O[C@H](COS(=O)(=O)O)[C@@H](OS(=O)(=O)O)[C@H](OS(=O)(=O)O)[C@H]2OS(=O)(=O)O)c(-c2ccccc2)oc2cc(O[C@@H]3O[C@H](COS(=O)(=O)O)[C@@H](OS(=O)(=O)O)[C@H](OS(=O)(=O)O)[C@H]3OS(=O)(=O)O)ccc12 [Compound 4, 3,7-di(β-D-glucopyranosyl)flavone persulfate]
EC20, minimum concentration that inhibited 20% of bacterial growth (Vibrio harveyi CECT 525): >100 µM | Bacterial growth inhibition in screening ([1]; 12.5 μM, 24 h, 26 °C): significant inhibitory activity | Bacterial growth inhibition at all the concentrations tested ([1]; 0.75–100 μM): less than 30% | inhibition at 12.5 µM ([1]; Vreelandella aquamarina, CECT5000, 12.5 μM): 15.3% | inhibition at 100 µM ([1]; Vreelandella aquamarina, CECT5000, 100 μM): 26.5% | Anti-settlement activity in screening (result in words) ([2]; 15 h, versus negative control): did not show notable activity

O=C(O)c1cc(OS(=O)(=O)O)c(OS(=O)(=O)O)c(OS(=O)(=O)O)c1 [Compound 12, gallic acid persulfate]
Concentration detected relative to the initial one (seawater stability) [3]: at least 95% | Water solubility [4]: highly water soluble | Tyrosinase activity inhibition [5]: not inhibited | Acetylcholinesterase activity inhibition [6]: not inhibited | Inhibition of light radiation emitted by V. fischeri ([7]; 15 min or 30 min contact, up to 1000 mg/L): no inhibition of light radiation emitted was found; also recorded: lack of light radiation inhibition | EC50 ([7]; NRRLB11177, 0.25 h, 15 min contact, read-out: EC50 15min): > 1000 µg/mL | EC50 ([7]; NRRLB11177, 0.5 h, 30 min contact, read-out: EC50 30min): > 1000 µg/mL | CC50 [8]: > 1000 µg/mL | LC50 at 15 h [9]: > 500 µM | Anti-settlement activity in screening (result in words) ([2]; 15 h, versus negative control): significant anti-settlement responses at 50 μM | pEC50 ([2]; Mytilus galloprovincialis, 15 h, plantigrades, 15 h, 18 °C, 1.56–500 μM, read-out: EC50, minimum concentration that inhibited 50% of larval settlement): 4.75 | EC50 ([2]; Mytilus galloprovincialis, 15 h, plantigrades, 15 h, 18 °C, read-out: EC50, minimum concentration that inhibited 50% of larval settlement): 8.95 µg/mL | Concentration range with significant anti-settlement activity ([2]; concentration-response 1.56–500 μM, versus negative control): 12.5 to 500 µM | EC50, minimum concentration that inhibited 50% of larval settlement ([2]; plantigrades, 15 h, 18 °C): 8.4 µg/mL | Mortality of Artemia salina (Artemia salina nauplii; 250 μM): < 10% | Mortality of A. salina nauplii (Artemia salina nauplii; 25, 50, and 250 μM, 48 h): less than 10% | Toxicity to A. salina (Artemia salina nauplii; 25, 50, and 250 μM, 48 h, versus negative control): no toxicity
